Reference: patent publication US20240122182A1, “PESTICIDALLY ACTIVE HETEROCYCLIC DERIVATIVES WITH SULFUR CONTAINING SUBSTITUENTS” (SYNGENTA CROP PROTECTION AG, priority 2021, published 2024)

Assays:
Format in all cases: in vivo
[1] = tested on: Chilo suppressalis (Striped Rice Stemborer); test: Activity against Chilo suppressalis (striped rice stemborer), artificial diet; conditions: 144 h, application rate of 200 ppm, L2 larvae, 6 days after infestation, read-out: control (mortality, anti-feeding effect, growth inhibition)
Procedure: 24-well microtiter plates with artificial diet were treated with aqueous test solutions prepared from 10′000 ppm DMSO stock solutions by pipetting. After drying, the plates were infested with L2 larvae (6-8 per well). The samples were assessed for mortality, anti-feeding effect, and growth inhibition in comparison to untreated samples 6 days after infestation. Control of Chilo suppressalis by a test sample is given when at least one of the categories mortality, anti-feedant effect, and growth inhibition is higher than the untreated sample.

[2] = tested on: Diabrotica Balteata (Corn Root Worm); test: Activity against Diabrotica balteata (corn root worm), maize sprouts sprayed; conditions: 96 h, application rate of 200 ppm, L2 larvae, 4 days after infestation, read-out: effect in at least one of the two categories (mortality or growth inhibition)
Procedure: Maize sprouts placed onto an agar layer in 24-well microtiter plates were treated with aqueous test solutions prepared from 10′000 ppm DMSO stock solutions by spraying. After drying, the plates were infested with L2 larvae (6 to 10 per well). The samples were assessed for mortality and growth inhibition in comparison to untreated samples 4 days after infestation.

[3] = tested on: Euschistus heros (Neotropical Brown Stink Bug); test: Activity against Euschistus heros (neotropical brown stink bug), soybean leaves sprayed; conditions: 120 h, application rate of 200 ppm, N2 nymphs, 5 days after infestation, read-out: effect in at least one of the two categories (mortality or growth inhibition)
Procedure: Soybean leaves on agar in 24-well microtiter plates were sprayed with aqueous test solutions prepared from 10′000 ppm DMSO stock solutions. After drying the leaves were infested with N2 nymphs. The samples were assessed for mortality and growth inhibition in comparison to untreated samples 5 days after infestation.

[4] = tested on: Myzus persicae (Green Peach Aphid); test: Activity against Myzus persicae (green peach aphid), feeding/contact activity; conditions: 144 h, application rate of 200 ppm, mixed ages, 6 days after infestation
Procedure: Sunflower leaf discs were placed onto agar in a 24-well microtiter plate and sprayed with aqueous test solutions prepared from 10′000 ppm DMSO stock solutions. After drying, the leaf discs were infested with an aphid population of mixed ages. The samples were assessed for mortality 6 days after infestation.

[5] = tested on: Plutella xylostella (Diamond Back Moth); test: Activity against Plutella xylostella (diamond back moth), artificial diet; conditions: 192 h, application rate of 200 ppm, eggs, 8 days after infestation, read-out: effect in at least one of the two categories (mortality or growth inhibition)
Procedure: 24-well microtiter plates with artificial diet were treated with aqueous test solutions prepared from 10′000 ppm DMSO stock solutions by pipetting. After drying, Plutella eggs were pipetted through a plastic stencil onto a gel blotting paper and the plate was closed with it. The samples were assessed for mortality and growth inhibition in comparison to untreated samples 8 days after infestation.

[6] = tested on: Spodoptera littoralis (Egyptian Cotton Leaf Worm); test: Activity against Spodoptera littoralis (Egyptian cotton leaf worm), cotton leaf discs sprayed; conditions: foliar, 72 h, application rate of 200 ppm, L1 larvae, 3 days after infestation, read-out: control (mortality, anti-feeding effect, growth inhibition)
Procedure: Cotton leaf discs were placed onto agar in 24-well microtiter plates and sprayed with aqueous test solutions prepared from 10′000 ppm DMSO stock solutions. After drying the leaf discs were infested with five L1 larvae. The samples were assessed for mortality, anti-feeding effect, and growth inhibition in comparison to untreated samples 3 days after infestation. Control of Spodoptera littoralis by a test sample is given when at least one of the categories mortality, anti-feedant effect, and growth inhibition is higher than the untreated sample.

[7] = tested on: Carpocapsa (Cydia) Pomonella (Codling Moth); test: Activity against Carpocapsa (Cydia) pomonella (codling moth), larvicide, feeding/contact; conditions: 336 h, application rate of 12.5 ppm, L1 larvae, 14 days after infestation, read-out: effect in at least one of the two categories (mortality or growth inhibition)
Procedure: Diet cubes coated with paraffin were sprayed with diluted test solutions in an application chamber. After drying off the treated cubes (10 replicates) were infested with 1 L1 larvae. Samples were incubated at 26-27° C. and checked 14 days after infestation for mortality and growth inhibition. The following compounds gave an effect of at least 80% in at least one of the two categories (mortality or growth inhibition) at an application rate of 12.5 ppm: P1, P2, P3, P5, P9, P10, P11, P12, P14, P17, P19, P20, P21, P23, P24, P30, P31.

[8] = tested on: Nilaparvata lugens (Brown Plant Hopper); test: Activity against Nilaparvata lugens (brown plant hopper), larvicide, systemic into water; conditions: 168 h, application rate of 12.5 ppm, N3 nymphs, 7 days after infestation
Procedure: Larvicide, systemic into water Rice plants cultivated in a nutritive solution were treated with the diluted test solutions into nourishing cultivation system. 1 day after application plants were infested with ˜20 N3 nymphs. 7 days after infestation samples were assessed for mortality and growth regulation.

CCS(=O)(=O)c1cc(OCC(C)(F)F)cnc1-c1cc2c(cn1)N(CC(F)(F)C(F)(F)F)C(=O)CC2 [P24, 6-[5-(2,2-difluoropropoxy)-3-ethylsulfonyl-2-pyridyl]-1-(2,2,3,3,3-pentafluoropropyl)-3,4-dihydro-1,7-naphthyridin-2-one]
≥ 80%: mortality at 200 ppm [1] | percent effect (mortality or growth inhibition) at 200 ppm [2] | percent effect (mortality or growth inhibition) at 200 ppm [3] | mortality at 200 ppm [4] | percent effect (mortality or growth inhibition) at 200 ppm [5] | mortality at 200 ppm [6] | percent effect (mortality or growth inhibition) at 12.5 ppm [7] | mortality at 12.5 ppm [8]

CCS(=O)(=O)c1ccc(C2CC2)nc1-c1cc2c(cn1)N(CC(F)(F)C(F)(F)F)C(=O)OC2 [P17, 6-(6-cyclopropyl-3-ethylsulfonyl-2-pyridyl)-1-(2,2,3,3,3-pentafluoropropyl)-4H-pyrido[3,4-d][1,3]oxazin-2-one]
≥ 80%: mortality at 200 ppm [1] | percent effect (mortality or growth inhibition) at 200 ppm [2] | mortality at 200 ppm [4] | percent effect (mortality or growth inhibition) at 200 ppm [5] | mortality at 200 ppm [6] | percent effect (mortality or growth inhibition) at 12.5 ppm [7] | mortality at 12.5 ppm [8]

CCS(=O)(=O)c1ccc(C2CC2)nc1-c1cc2c(cn1)N(CC(F)(F)C(F)(F)F)C(=O)CC2 [P14, 6-(6-cyclopropyl-3-ethylsulfonyl-2-pyridyl)-1-(2,2,3,3,3-pentafluoropropyl)-3,4-dihydro-1,7-naphthyridin-2-one]
≥ 80%: mortality at 200 ppm [1] | percent effect (mortality or growth inhibition) at 200 ppm [2] | mortality at 200 ppm [4] | percent effect (mortality or growth inhibition) at 200 ppm [5] | mortality at 200 ppm [6] | percent effect (mortality or growth inhibition) at 12.5 ppm [7] | mortality at 12.5 ppm [8]

CCS(=O)(=O)c1cc(C(F)(F)F)cnc1-c1cc2c(cn1)N(CC(F)(F)C(F)(F)F)C(=O)OC2 [P10, 6-[3-ethylsulfonyl-5-(trifluoromethyl)-2-pyridyl]-1-(2,2,3,3,3-pentafluoropropyl)-4H-pyrido[3,4-d][1,3]oxazin-2-one]
≥ 80%: mortality at 200 ppm [1] | percent effect (mortality or growth inhibition) at 200 ppm [2] | mortality at 200 ppm [4] | percent effect (mortality or growth inhibition) at 200 ppm [5] | mortality at 200 ppm [6] | percent effect (mortality or growth inhibition) at 12.5 ppm [7] | mortality at 12.5 ppm [8]

CCS(=O)(=O)c1cc(C(F)(F)F)cnc1-c1cc2c(cn1)N(CC(F)(F)C(F)(F)F)C(=O)CC2 [P9, 6-[3-ethylsulfonyl-5-(trifluoromethyl)-2-pyridyl]-1-(2,2,3,3,3-pentafluoropropyl)-3,4-dihydro-1,7-naphthyridin-2-one]
≥ 80%: mortality at 200 ppm [1] | percent effect (mortality or growth inhibition) at 200 ppm [2] | mortality at 200 ppm [4] | percent effect (mortality or growth inhibition) at 200 ppm [5] | mortality at 200 ppm [6] | percent effect (mortality or growth inhibition) at 12.5 ppm [7] | mortality at 12.5 ppm [8]

CCS(=O)(=O)c1cc(OC(C)(C)C#N)cnc1-c1cc2c(cn1)N(CC(F)(F)C(F)(F)F)C(=O)CC2 [P20, 2-[[5-ethylsulfonyl-6-[2-oxo-1-(2,2,3,3,3-pentafluoropropyl)-3,4-dihydro-1,7-naphthyridin-6-yl]-3-pyridyl]oxy]-2-methyl-propanenitrile]
≥ 80%: mortality at 200 ppm [1] | percent effect (mortality or growth inhibition) at 200 ppm [2] | percent effect (mortality or growth inhibition) at 200 ppm [3] | mortality at 200 ppm [4] | percent effect (mortality or growth inhibition) at 200 ppm [5] | mortality at 200 ppm [6] | percent effect (mortality or growth inhibition) at 12.5 ppm [7] | mortality at 12.5 ppm [8]

CCS(=O)(=O)c1cc(C(C)(C)F)cnc1-c1cc2c(cn1)N(CC(F)(F)C(F)(F)F)C(=O)OC2 [P30, 6-[3-ethylsulfonyl-5-(1-fluoro-1-methyl-ethyl)-2-pyridyl]-1-(2,2,3,3,3-pentafluoropropyl)-4H-pyrido[3,4-d][1,3]oxazin-2-one]
≥ 80%: mortality at 200 ppm [1] | percent effect (mortality or growth inhibition) at 200 ppm [2] | percent effect (mortality or growth inhibition) at 200 ppm [5] | mortality at 200 ppm [6] | percent effect (mortality or growth inhibition) at 12.5 ppm [7] | mortality at 12.5 ppm [8]
